Patent publication US8466176B2 (priority 2008, dated 2013)
Where two headings read alike, the source gives them in different places.

How the values were obtained:
[1] = Measurement of logP values according EEC directive 79/831 Annex V.A8 by HPLC on reversed phase columns; assay type: physicochemical; details: for chromatographic logP: reversed phase HPLC columns, read-out: log p
[2] = logP by HPLC on reversed phase columns, method [a], pH 2.3 with 0.1% phosphoric acid and acetonitrile; assay type: physicochemical; details: method [a]: pH 2.3, 0.1% phosphoric acid and acetonitrile as eluent, EEC directive 79/831 Annex V.A8, reversed phase HPLC; for chromatographic logP: reversed phase HPLC columns, read-out: log p
[3] = logP(HCOOH) reported with HPLC/MS
Phytophthora infestans = experiment: whole plant or invertebrate; assay type: in vivo; details: in Solanum lycopersicum, 168 h, read-out: efficacy
[4] = method [c]: LC-MS at pH 7.8, 0.001 molar ammonium hydrogen carbonate in water, linear gradient 10% to 95% acetonitrile
[5] = no method mark printed in the cell
[6] = HCOOH (formic acid), logP(HCOOH), HPLC/MS
[7] = reversed phase HPLC column, pH 2.7, log p, method [b]: LC-MS at pH 2.7, 0.1% formic acid in water and acetonitrile, linear gradient 10% to 95% acetonitrile
[8] = method [a]: pH 2.3 with 0.1% phosphoric acid and acetonitrile as eluent

Cn1nnnc1C(=NOCc1cccc(Br)n1)c1ccccc1 (single isomer, unassigned) [Example 306]
log p [1, 5]: 3.19

Cn1nnnc1C(=NOCc1cccc(Br)n1)c1ccccc1 (single isomer, unassigned) [Example 307]
log p [1, 5]: 3.00

C#Cc1cccc(CON=C(c2ccccc2)c2nnnn2C)n1 [Example 19]
log p [2]: 2.69^[a];
log p ([3]; method [b]: LC-MS at pH 2.7, 0.1% formic acid in water and acetonitrile, linear gradient 10% to 95% acetonitrile): 2.7^[b]

CCCCCCOc1cccc(CON=C(c2ccccc2)c2nnnn2C)n1 [Example 20, N-{[6-(hexyloxy)pyridin-2-yl]methoxy}-1-(1-methyl-1H-tetrazol-5-yl)-1-phenylmethanimine]
chromatographic logP [2]: 5.39
chromatographic logP ([3]; logP(HCOOH), HPLC/MS): 5.39

CCCCC#Cc1cccc(CON=C(c2ccccc2)c2nnnn2C)n1 [Example 23, N-{[6-(hex-1-yn-1-yl)pyridin-2-yl]methoxy}-1-(1-methyl-1H-tetrazol-5-yl)-1-phenylmethanimine]
pest or weed control at 500 ppm (Phytophthora infestans): ≥ 70%

COCC#Cc1cccc(CON=C(c2ccccc2)c2nnnn2C)n1 [Example 24]
log p [4]: 3.04^[c]

Cn1nnnc1C(=NOCc1csc(Br)n1)c1ccccc1 [Example 32, N-[(2-bromo-1,3-thiazol-4-yl)methoxy]-1-(1-methyl-1H-tetrazol-5-yl)-1-phenyl-methanimine]
chromatographic logP ([3]; logP(HCOOH), HPLC/MS): 3.11
pest or weed control at 500 ppm (Phytophthora infestans): ≥ 70%

CCCCCCN(C)c1nc(CON=C(c2ccccc2)c2nnnn2C)cs1 [Example 50]
log p [2]: 4.56^[a]

CCCCCN(C)c1nc(CON=C(c2ccccc2)c2nnnn2C)cs1 [Example 51]
log p [2]: 4.01^[a]

Cn1nnnc1C(=NOCc1csc(C#Cc2ccccc2)n1)c1ccccc1 [Example 59]
log p [2]: 4.16^[a]

CC(C)CC#Cc1nc(CON=C(c2ccccc2)c2nnnn2C)cs1 [Example 61]
log p [2]: 4.34^[a]

Cn1nnnc1C(=NOCc1csc(C#CCCCc2ccccc2)n1)c1ccccc1 [Example 62]
log p [2]: 4.78^[a]

CCCC(C)C#Cc1nc(CON=C(c2ccccc2)c2nnnn2C)cs1 (stereo not drawn) [Example 64]
log p [2]: 4.78^[a]

CC(C)CCC#Cc1nc(CON=C(c2ccccc2)c2nnnn2C)cs1 [Example 65]
log p [2]: 4.75^[a]

Cn1nnnc1C(=NOCc1csc(C#CCC2CCCC2)n1)c1ccccc1 [Example 66]
log p [2]: 4.92^[a]

Cn1nnnc1C(=NOCc1csc(C#CCC2CCCCC2)n1)c1ccccc1 [Example 67]
log p [2]: 5.32^[a]

Cn1nnnc1C(=NOCc1csc(C#CC2CCCCC2)n1)c1ccccc1 [Example 68]
log p [2]: 4.89^[a]

Cn1nnnc1C(=NOCc1csc(C#CC2CCCC2)n1)c1ccccc1 [Example 69]
log p [2]: 4.49^[a]

Cn1nnnc1C(=NOCc1csc(C#CC2CC2)n1)c1ccccc1 [Example 70, N-{[2-(cyclopropylethynyl)-1,3-thiazol-4-yl]methoxy}-1-(1-methyl-1H-tetrazol-5-yl)-1-phenylmethanimine]
chromatographic logP [2]: 3.58
chromatographic logP [3, 6]: 3.58
pest or weed control at 500 ppm (Phytophthora infestans): ≥ 70%

COCC#Cc1nc(CON=C(c2ccccc2)c2nnnn2C)cs1 [Example 71]
log p [2]: 2.92^[a]

CCCCC#Cc1nc(CON=C(c2ccccc2)c2nnnn2C)cs1 [Example 72]
log p [2]: 4.36^[a]

Cn1nnnc1C(=NOCc1cccc(C(F)(F)C(F)(F)C(F)(F)C(F)(F)C(F)(F)C(F)(F)C(F)(F)F)n1)c1ccccc1 [Example 73]
log p [2]: 5.86^[a]

CCCCCSc1cccc(CON=C(c2ccccc2)c2nnnn2C)n1 [Example 74, 1-(1-methyl-1H-tetrazol-5-yl)-N-{[6-(pentylsulfanyl)pyridin-2-yl]methoxy}-1-phenylmethanimine]
chromatographic logP [2]: 5.14
chromatographic logP ([3]; HPLC/MS, logP(HCOOH)): 5.97

Cn1nnnc1C(=NOCc1cccc(NCCC2CCCCC2)n1)c1ccccc1 [Example 80, N-(2-cyclohexylethyl)-6-[({[(1-methyl-1H-tetrazol-5-yl)(phenyl)methylene]amino}oxy)methyl]pyridin-2-amine]
pest or weed control at 500 ppm (Phytophthora infestans): ≥ 70%

CCCCC/C=C/c1nc(CON=C(c2ccccc2)c2nnnn2C)cs1 [Example 81]
log p [2]: 5.05^[a]

CCCCCC/C=C/c1nc(CON=C(c2ccccc2)c2nnnn2C)cs1 [Example 82]
log p [2]: 5.53^[a]

COc1cccc(/C=C/c2cccc(CON=C(c3ccccc3)c3nnnn3C)n2)c1 [Example 87]
log p [2]: 4.14^[a]

Cn1nnnc1C(=NOCc1csc(/C=C/Cc2ccccc2)n1)c1ccccc1 [Example 88]
log p [2]: 4.29^[a]

Cn1nnnc1C(=NOCc1csc(/C=C/C2CCCCC2)n1)c1ccccc1 [Example 89]
log p [2]: 5.14^[a]

CCCCC/C=C/c1cccc(CON=C(c2ccccc2)c2nnnn2C)n1 [Example 90]
log p [2]: 5^[a]

Cn1nnnc1C(=NOCc1cccc(/C=C/c2cccc(F)c2)n1)c1ccccc1 [Example 91]
log p [2]: 4.29^[a]

CCCCCC/C=C/c1cccc(CON=C(c2ccccc2)c2nnnn2C)n1 [Example 92]
log p [2]: 5.5^[a]

Cn1nnnc1C(=NOCc1cccc(/C=C/C2CCCCC2)n1)c1ccccc1 [Example 93, N-({6-[(E)-2-cyclohexylvinyl]pyridin-2-yl}methoxy)-1-(1-methyl-1H-tetrazol-5-yl)-1-phenylmethanimine]
chromatographic logP [2]: 5.05
chromatographic logP ([3]; HPLC, logP(HCOOH), HPLC/MS): 5.05
pest or weed control at 500 ppm (Phytophthora infestans): ≥ 70%

Cn1nnnc1C(=NOCc1cccc(/C=C/Cc2ccccc2)n1)c1ccccc1 [Example 94]
log p [2]: 4.31^[a]

Cn1nnnc1C(=NOCc1cccc(/C=C/c2cc(F)cc(F)c2)n1)c1ccccc1 [Example 95]
log p [2]: 4.49^[a]

CCCCC#Cc1ccc(F)c(CON=C(c2ccccc2)c2nnnn2C)n1 [Example 99, N-{[3-fluoro-6-(hex-1-yn-1-yl)pyridin-2-yl]methoxy}-1-(1-methyl-1H-tetrazol-5-yl)-1-phenylmethanimine]
chromatographic logP ([3]; logP(HCOOH), HPLC/MS): 4.41
chromatographic logP [3, 7]: 4.41
pest or weed control at 500 ppm (Phytophthora infestans): ≥ 70%

Cn1nnnc1C(=NOCc1nc(Cl)sc1Cl)c1ccccc1 [Example 113, N-[(2,5-dichloro-1,3-thiazol-4-yl)methoxy]-1-(1-methyl-1H-tetrazol-5-yl)-1-phenylmethanimine]
chromatographic logP [3, 6]: 3.67
chromatographic logP [3, 7]: 3.67
pest or weed control at 500 ppm (Phytophthora infestans): ≥ 70%

Cn1nnnc1C(=NOCc1nc(C#CC2CC2)sc1Cl)c1ccccc1 [Example 114, N-{[5-chloro-2-(cyclopropylethynyl)-1,3-thiazol-4-yl]methoxy}-1-(1-methyl-1H-tetrazol-5-yl)-1-phenylmethanimine]
chromatographic logP [3, 6]: 4.59
chromatographic logP [3, 7]: 4.59
pest or weed control at 500 ppm (Phytophthora infestans): ≥ 70%

COc1ccc(CON=C(c2ccccc2)c2nnnn2C)nc1C#CC1CC1 [Example 126, N-{[6-(cyclopropylethynyl)-5-methoxypyridin-2-yl]methoxy}-1-(1-methyl-1H-tetrazol-5-yl)-1-phenylmethanimine]
chromatographic logP [3, 6]: 3.23
chromatographic logP [3, 7]: 3.23
pest or weed control at 500 ppm (Phytophthora infestans): ≥ 70%

Cn1nnnc1C(=NOCc1cccc(C2OCCO2)n1)c1ccccc1 [Example 160, N-{[6-(1,3-dioxolan-2-yl)pyridin-2-yl]methoxy}-1-(1-methyl-1H-tetrazol-5-yl)-1-phenylmethanimine]
chromatographic logP ([3]; HPLC, logP(HCOOH), HPLC/MS): 2.47
chromatographic logP ([3]; reversed phase HPLC column, pH 7.8, log p, method [c]: LC-MS, pH 7.8 with 0.001 molar ammonium hydrogen carbonate solution in water, linear gradient 10% to 95% acetonitrile): 2.47
pest or weed control at 500 ppm (Phytophthora infestans): ≥ 70%

Cn1nnnc1C(=NOCc1cccc(C=NOC2CCCCC2)n1)c1ccccc1 [Example 274, N-[(6-{[(cyclohexyloxy)imino]methyl}pyridin-2-yl)methoxy]-1-(1-methyl-1H-tetrazol-5-yl)-1-phenylmethanimine]
chromatographic logP ([3]; logP(HCOOH), HPLC/MS): 4.89
chromatographic logP [1, 8]: 4.89

Cn1nnnc1C(=NOCc1cccc(CO)n1)c1ccccc1 [Example 275, {6-[({[(1-methyl-1H-tetrazol-5-yl)(phenyl)methylene]amino}oxy)methyl]pyridin-2-yl}methanol]
chromatographic logP [3, 6]: 1.76
chromatographic logP [1, 8]: 1.76

CCCCC1CC(c2cccc(CON=C(c3ccccc3)c3nnnn3C)n2)=NO1 (stereo not drawn) [Example 276]
log p [1, 8]: 4.26^[a]

Cn1nnnc1C(=NOCc1csc(/C=C/C2CC2)n1)c1ccccc1 [Example 277]
log p [1, 8]: 3.58^[a]

CCCC/C=C/c1nc(CON=C(c2ccccc2)c2nnnn2C)cs1 [Example 278, N-({2-[(1E)-hex-1-en-1-yl]-1,3-thiazol-4-yl}methoxy)-1-(1-methyl-1H-tetrazol-5-yl)-1-phenylmethanimine]
chromatographic logP ([3]; HPLC, logP(HCOOH), HPLC/MS): 4.56
chromatographic logP [1, 8]: 4.56

Cn1nnnc1C(=NOCc1csc(/C=C/CC2CCCC2)n1)c1ccccc1 [Example 279]
log p [1, 8]: 5.14^[a]

Cn1nnnc1C(=NOCc1cccc(NCC2CCCC2)n1)c1ccccc1 [Example 288]
log p [1, 8]: 2.3^[a]

Cn1nnnc1C(=NOCc1cccc(NCC2CCCCC2)n1)c1ccccc1 [Example 289]
log p [1, 8]: 2.43^[a]
